Data: ChEMBL document CHEMBL1671676, “In vitro activity of nemonoxacin, a novel nonfluorinated quinolone, against 2,440 clinical isolates” (2009)
Values after ≈ are worked out from the molar mass of the structure shown.

Columns and labels:
Format in all cases: functional
[1] = tested on: Klebsiella pneumoniae; assay: Antibacterial activity against Klebsiella pneumoniae assessed as percent cumulative susceptible isolates at minimum inhibitory concentration of 4 ug/ml by CLSI broth microdilution method; parameters: scale not given: the % may be the effect or the level left
[2] = tested on: Staphylococcus aureus; assay: Antibacterial activity against Staphylococcus aureus by CLSI M7-A7 broth microdilution method
[3] = tested on: Staphylococcus aureus; assay: Antibacterial activity against methicillin-susceptible Staphylococcus aureus assessed as percent cumulative susceptible isolates at minimum inhibitory concentration of 0.06 ug/ml by CLSI broth microdilution method; parameters: scale not given: the % may be the effect or the level left
[4] = tested on: Staphylococcus aureus; assay: Antibacterial activity against hospital-associated methicillin-resistant Staphylococcus aureus assessed as percent cumulative susceptible isolates at minimum inhibitory concentration of 8 ug/ml by CLSI broth microdilution method; parameters: scale not given: the % may be the effect or the level left
[5] = tested on: Stenotrophomonas maltophilia; assay: Antibacterial activity against Stenotrophomonas maltophilia assessed as percent cumulative susceptible isolates at minimum inhibitory concentration of 4 ug/ml by CLSI broth microdilution method; parameters: scale not given: the % may be the effect or the level left
[6] = tested on: Streptococcus pneumoniae; assay: Antibacterial activity against penicillin-resistant Streptococcus pneumoniae assessed as percent cumulative susceptible isolates at minimum inhibitory concentration of […] by CLSI broth microdilution method; parameters: scale not given: the % may be the effect or the level left
[7] = tested on: Enterococcus faecium; assay: Antibacterial activity against Enterococcus faecium assessed as percent cumulative susceptible isolates at minimum inhibitory concentration of 2 ug/ml by CLSI broth microdilution method; parameters: scale not given: the % may be the effect or the level left
[8] = tested on: Stenotrophomonas maltophilia; assay: Antibacterial activity against Stenotrophomonas maltophilia assessed as percent cumulative susceptible isolates at minimum inhibitory concentration of 1 ug/ml by CLSI broth microdilution method; parameters: scale not given: the % may be the effect or the level left
[9] = tested on: Pseudomonas aeruginosa; assay: Antibacterial activity against Pseudomonas aeruginosa assessed as percent cumulative susceptible isolates at minimum inhibitory concentration of 1 ug/ml by CLSI broth microdilution method; parameters: scale not given: the % may be the effect or the level left
[10] = tested on: Enterobacter cloacae; assay: Antibacterial activity against Enterobacter cloacae assessed as percent cumulative susceptible isolates at minimum inhibitory concentration of 0.06 ug/ml by CLSI broth microdilution method; parameters: scale not given: the % may be the effect or the level left
[11] = tested on: Streptococcus pneumoniae; assay: Antibacterial activity against Streptococcus pneumoniae assessed as percent cumulative susceptible isolates at minimum inhibitory concentration of […] by CLSI broth microdilution method; parameters: scale not given: the % may be the effect or the level left
[12] = tested on: Escherichia coli; assay: Antibacterial activity against Escherichia coli assessed as percent cumulative susceptible isolates at minimum inhibitory concentration of 0.5 ug/ml by CLSI broth microdilution method; parameters: scale not given: the % may be the effect or the level left
[13] = tested on: Staphylococcus epidermidis; assay: Antibacterial activity against methicillin-susceptible Staphylococcus epidermidis assessed as percent cumulative susceptible isolates at minimum inhibitory concentration of 4 ug/ml by CLSI broth microdilution method; parameters: scale not given: the % may be the effect or the level left
[14] = tested on: Staphylococcus aureus; assay: Antibacterial activity against community-associated methicillin-resistant Staphylococcus aureus assessed as percent cumulative susceptible isolates at minimum inhibitory concentration of […] by CLSI broth microdilution method; parameters: scale not given: the % may be the effect or the level left
[15] = tested on: Acinetobacter baumannii; assay: Antibacterial activity against Acinetobacter baumannii assessed as percent cumulative susceptible isolates at minimum inhibitory concentration of 16 ug/ml by CLSI broth microdilution method; parameters: scale not given: the % may be the effect or the level left
[16] = tested on: Acinetobacter baumannii; assay: Antibacterial activity against Acinetobacter baumannii assessed as percent cumulative susceptible isolates at minimum inhibitory concentration of 0.5 ug/ml by CLSI broth microdilution method; parameters: scale not given: the % may be the effect or the level left
[17] = tested on: Enterobacter cloacae; assay: Antibacterial activity against Enterobacter cloacae assessed as percent cumulative susceptible isolates at minimum inhibitory concentration of 4 ug/ml by CLSI broth microdilution method; parameters: scale not given: the % may be the effect or the level left
[18] = tested on: Klebsiella pneumoniae; assay: Antibacterial activity against Klebsiella pneumoniae assessed as percent cumulative susceptible isolates at minimum inhibitory concentration of 1 ug/ml by CLSI broth microdilution method; parameters: scale not given: the % may be the effect or the level left
[19] = tested on: Enterococcus faecalis; assay: Antibacterial activity against Enterococcus faecalis assessed as percent cumulative susceptible isolates at minimum inhibitory concentration of 1 ug/ml by CLSI broth microdilution method; parameters: scale not given: the % may be the effect or the level left
[20] = tested on: Escherichia coli; assay: Antibacterial activity against Escherichia coli assessed as percent cumulative susceptible isolates at minimum inhibitory concentration of 0.06 ug/ml by CLSI broth microdilution method; parameters: scale not given: the % may be the effect or the level left
[21] = tested on: Pseudomonas aeruginosa; assay: Antibacterial activity against Pseudomonas aeruginosa assessed as percent cumulative susceptible isolates at minimum inhibitory concentration of 32 ug/ml by CLSI broth microdilution method; parameters: scale not given: the % may be the effect or the level left
[22] = tested on: Staphylococcus aureus; assay: Antibacterial activity against methicillin-susceptible Staphylococcus aureus assessed as percent cumulative susceptible isolates at minimum inhibitory concentration of 4 ug/ml by CLSI broth microdilution method; parameters: scale not given: the % may be the effect or the level left
[23] = tested on: Klebsiella pneumoniae; assay: Antibacterial activity against Klebsiella pneumoniae assessed as percent cumulative susceptible isolates at minimum inhibitory concentration of 0.5 ug/ml by CLSI broth microdilution method; parameters: scale not given: the % may be the effect or the level left
[24] = tested on: Enterobacter cloacae; assay: Antibacterial activity against Enterobacter cloacae assessed as percent cumulative susceptible isolates at minimum inhibitory concentration of 1 ug/ml by CLSI broth microdilution method; parameters: scale not given: the % may be the effect or the level left
[25] = tested on: Klebsiella pneumoniae; assay: Antibacterial activity against Klebsiella pneumoniae assessed as percent cumulative susceptible isolates at minimum inhibitory concentration of 2 ug/ml by CLSI broth microdilution method; parameters: scale not given: the % may be the effect or the level left
[26] = tested on: Escherichia coli; assay: Antibacterial activity against Escherichia coli assessed as percent cumulative susceptible isolates at minimum inhibitory concentration of 4 ug/ml by CLSI broth microdilution method; parameters: scale not given: the % may be the effect or the level left
[27] = tested on: Enterobacter cloacae; assay: Antibacterial activity against Enterobacter cloacae assessed as percent cumulative susceptible isolates at minimum inhibitory concentration of 32 ug/ml by CLSI broth microdilution method; parameters: scale not given: the % may be the effect or the level left
[28] = tested on: Streptococcus pneumoniae; assay: Antibacterial activity against Streptococcus pneumoniae assessed as percent cumulative susceptible isolates at minimum inhibitory concentration of 0.06 ug/ml by CLSI broth microdilution method; parameters: scale not given: the % may be the effect or the level left
[29] = tested on: Staphylococcus aureus; assay: Antibacterial activity against methicillin-susceptible Staphylococcus aureus assessed as percent cumulative susceptible isolates at minimum inhibitory concentration of 8 ug/ml by CLSI broth microdilution method; parameters: scale not given: the % may be the effect or the level left
[30] = tested on: Escherichia coli; assay: Antibacterial activity against Escherichia coli assessed as percent cumulative susceptible isolates at minimum inhibitory concentration of […] by CLSI broth microdilution method; parameters: scale not given: the % may be the effect or the level left
[31] = tested on: Pseudomonas aeruginosa; assay: Antibacterial activity against Pseudomonas aeruginosa assessed as percent cumulative susceptible isolates at minimum inhibitory concentration of 0.5 ug/ml by CLSI broth microdilution method; parameters: scale not given: the % may be the effect or the level left
[32] = tested on: Staphylococcus aureus; assay: Antibacterial activity against methicillin-resistant Staphylococcus aureus assessed as percent cumulative susceptible isolates at minimum inhibitory concentration of 1 ug/ml by CLSI broth microdilution method; parameters: scale not given: the % may be the effect or the level left
[33] = tested on: Proteus mirabilis; assay: Antibacterial activity against Proteus mirabilis assessed as percent cumulative susceptible isolates at minimum inhibitory concentration of 32 ug/ml by CLSI broth microdilution method; parameters: scale not given: the % may be the effect or the level left
[34] = tested on: Klebsiella oxytoca; assay: Antibacterial activity against Klebsiella oxytoca assessed as percent cumulative susceptible isolates at minimum inhibitory concentration of 0.06 ug/ml by CLSI broth microdilution method; parameters: scale not given: the % may be the effect or the level left
[35] = tested on: Pseudomonas aeruginosa; assay: Antibacterial activity against Pseudomonas aeruginosa assessed as percent cumulative susceptible isolates at minimum inhibitory concentration of […] by CLSI broth microdilution method; parameters: scale not given: the % may be the effect or the level left
[36] = tested on: Klebsiella pneumoniae; assay: Antibacterial activity against Klebsiella pneumoniae assessed as percent cumulative susceptible isolates at minimum inhibitory concentration of 32 ug/ml by CLSI broth microdilution method; parameters: scale not given: the % may be the effect or the level left
[37] = tested on: Staphylococcus aureus; assay: Antibacterial activity against methicillin-susceptible Staphylococcus aureus assessed as percent cumulative susceptible isolates at minimum inhibitory concentration of […] by CLSI broth microdilution method; parameters: scale not given: the % may be the effect or the level left
[38] = tested on: Enterobacteriaceae; assay: Antibacterial activity against Enterobacteriaceae by CLSI M7-A7 broth microdilution method
[39] = tested on: Staphylococcus aureus; assay: Antibacterial activity against methicillin-susceptible Staphylococcus aureus assessed as percent cumulative susceptible isolates at minimum inhibitory concentration of 1 ug/ml by CLSI broth microdilution method; parameters: scale not given: the % may be the effect or the level left

Q: How did the Activity [1] turn out when `COc1c(N2C[C@@H](C)C[C@H](N)C2)ccc2c(=O)c(C(=O)O)cn(C3CC3)c12` [NEMONOXACIN] was run?
A: 94%

Q: What about the MIC [2] of the same molecule?
A: < 2 µg/mL

Q: And the MIC90 [2]?
A: 0.06 µg/mL (≈ 0.162 µM)

Q: What about the Activity [3] of the same molecule?
A: 88.8%

Q: What about the Activity [4] of the same molecule?
A: 68.7%

Q: And the Activity [5]?
A: 73.1%

Q: And the Activity [6]?
A: 84.4%

Q: What about the Activity [7] of the same molecule?
A: 31.6%

Q: And the Activity [8]?
A: 26.9%

Q: And the Activity [9]?
A: 51.1%

Q: What about the Activity [10] of the same molecule?
A: 8.3%

Q: What about the Activity [11] of the same molecule?
A: 100%

Q: And the Activity [12]?
A: 72.5%

Q: And the Activity [13]?
A: 100%

Q: And the Activity [14]?
A: 60%

Q: What about the Activity [15] of the same molecule?
A: 100%

Q: And the Activity [16]?
A: 86.7%

Q: What about the Activity [17] of the same molecule?
A: 93.1%

Q: What about the Activity [18] of the same molecule?
A: 86.9%

Q: What about the Activity [19] of the same molecule?
A: 90.1%

Q: What about the Activity [20] of the same molecule?
A: 22.7%

Q: What about the Activity [21] of the same molecule?
A: 91.2%

Q: What about the Activity [22] of the same molecule?
A: 98.9%

Q: And the Activity [23]?
A: 77.9%

Q: And the Activity [24]?
A: 91.7%

Q: What about the Activity [25] of the same molecule?
A: 92%

Q: And the Activity [26]?
A: 75.8%

Q: And the Activity [27]?
A: 100%

Q: And the Activity [28]?
A: 99.4%

Q: What about the Activity [29] of the same molecule?
A: 99.2%

Q: And the Activity [30]?
A: 68.8%

Q: What about the Activity [31] of the same molecule?
A: 14.6%

Q: What about the Activity [32] of the same molecule?
A: 34.6%

Q: And the Activity [33]?
A: 93.9%

Q: And the Activity [34]?
A: 6.3%

Q: And the Activity [35]?
A: 4.4%

Q: What about the Activity [36] of the same molecule?
A: 98%

Q: And the Activity [37]?
A: 92.5%

Q: What about the MIC90 [38] of the same molecule?
A: 0.5 µg/mL (≈ 1.35 µM)

Q: And the Activity [39]?
A: 94.9%

Q: For `C[C@H]1COc2c(N3CCN(C)CC3)c(F)cc3c(=O)c(C(=O)O)cn1c23.C[C@H]1COc2c(N3CCN(C)CC3)c(F)cc3c(=O)c(C(=O)O)cn1c23.O` [LEVOFLOXACIN], which Activity [1] is on record?
A: 96%

Q: And the MIC [2]?
A: ≥ 2 µg/mL

Q: What about the MIC90 [2] of the same molecule?
A: 16 µg/mL

Q: And the Activity [3]?
A: 0.5%

Q: What about the Activity [4] of the same molecule?
A: 4%

Q: And the Activity [5]?
A: 84.6%

Q: What about the Activity [6] of the same molecule?
A: 3.1%

Q: And the Activity [7]?
A: 23.7%

Q: And the Activity [8]?
A: 46.2%

Q: And the Activity [9]?
A: 59.9%

Q: And the Activity [10]?
A: 87.5%

Q: What about the Activity [11] of the same molecule?
A: 10.2%

Q: What about the Activity [12] of the same molecule?
A: 73.6%

Q: What about the Activity [13] of the same molecule?
A: 62.8%

Q: What about the Activity [14] of the same molecule?
A: 24%

Q: And the Activity [15]?
A: 100%

Q: What about the Activity [16] of the same molecule?
A: 86.7%

Q: And the Activity [17]?
A: 97.2%

Q: And the Activity [18]?
A: 92.5%

Q: What about the Activity [19] of the same molecule?
A: 35.8%

Q: What about the Activity [20] of the same molecule?
A: 66.4%

Q: What about the Activity [21] of the same molecule?
A: 100%

Q: What about the Activity [22] of the same molecule?
A: 92%

Q: What about the Activity [23] of the same molecule?
A: 87.4%

Q: What about the Activity [24] of the same molecule?
A: 91.7%

Q: What about the Activity [25] of the same molecule?
A: 93%

Q: And the Activity [26]?
A: 75.6%

Q: And the Activity [27]?
A: 100%

Q: What about the Activity [28] of the same molecule?
A: 0.5%

Q: What about the Activity [29] of the same molecule?
A: 93.6%

Q: And the Activity [30]?
A: 70%

Q: And the Activity [31]?
A: 42.3%

Q: What about the Activity [32] of the same molecule?
A: 9.4%

Q: What about the Activity [33] of the same molecule?
A: 100%

Q: What about the Activity [34] of the same molecule?
A: 93.8%

Q: What about the Activity [35] of the same molecule?
A: 10.2%

Q: What about the Activity [36] of the same molecule?
A: 100%

Q: And the Activity [37]?
A: 81.8%

Q: And the MIC90 [38]?
A: ≤ 0.06 µg/mL

Q: What about the Activity [39] of the same molecule?
A: 91.4%
